From publication PMC10673995, “Discovery of a novel cardiac-specific myosin modulator using artificial intelligence-based virtual screening” (Nature Communications, 2023)
Where “and” joins values, the source holds several entries; their conditions need not be identical. Equal values may be shown once. Read-outs that look alike come from different tables or passages of the source.

How the values were obtained:
[1] = target: bovine β-cardiac myosin S1 / myosin S2 tail domain (Bos taurus, UniProt Q9BE39)
Protocol: In a subset of trabeculae, we replaced the endogenous myosin regulatory light chain (RLC) with a recombinant cardiac RLC crosslinked to a bifunctional sulforhodamine (BSR) along its E-helix (BSR-cRLC-E)[39],[40]. This allowed us to determine the orientation of the RLC-region of myosin in demembranated trabeculae using polarized fluorescence (Fig. 4b; Supplementary Table 2).
Microscale thermophoresis (MST) experiments were performed as described previously. Briefly, MST experiments were performed on a Monolith NT.115 instrument (NanoTemper) in interaction buffer containing 20 mmol L^−1 Mops, pH 7, 1 mmol L^−1 MgCl2, 50 mmol L^−1 KCl, 1 mmol L^−1 DTT, and 0.05% (v/v) Tween-20. […] All proteins were either gel-filtered into and/or extensively dialyzed against interaction buffer. Titration experiments were performed with a fixed concentration of 100 nmol L^−1 of Alexa647-labeled proteins in premium capillaries.

[2] = system: phospholipid biosynthesis in mammalian cells; set-up: method as in PubChem; details: ref PubChem; cited from earlier work
cyclic GMP-AMP synthase = system: cyclic GMP-AMP synthase; set-up: method as in PubChem; details: ref PubChem; cited from earlier work
[3] = system: slow skeletal muscle (Soleus) myofibrils; assay: Myofibrillar ATPase, slow skeletal myofibrils; format: biochemical, marmoset (Callithrix jacchus)
From the text: (§1) Next we tested the myosin isoform specificity of F10 by measuring its effect on the ATPase activity of myofibrils isolated from ventricle, and fast (Tiberialis Anterior) and slow skeletal muscles (Soleus) isolated from marmoset (Callithrix jacchus).
(§2) Demembranated myofibrils were freshly prepared from bovine ventricle on the day of the experiments as previously described[25],[63]. Marmoset ventricular and skeletal muscle tissue was kindly provided by the Biological Service Unit of King’s College London. Steady-state myofibrillar ATPase activity was measured using an identical protocol as described above but in myofibril assay buffer (composition in mmol L^−1: 20 MOPS pH 7, 50 KCl, 0.1 CaCl2, 1 DTT) with a final bovine CMF concentration of 1 mg mL^−1.

[4] = system: neuropeptide receptor NPYLR7; set-up: method as in PubChem; details: ref PubChem; cited from earlier work
cardiac myofibrils = assay: Myofibrillar ATPase, cardiac (ventricle) myofibrils; format: biochemical, marmoset (Callithrix jacchus)
From the text: as §1, §2

[5] = system: orientation of the RLC-region of myosin in demembranated trabeculae; assay: Polarized fluorescence of BSR-cRLC-E in demembranated trabeculae (order parameter <P2>); set-up: species or system rat (Rattus norvegicus)
From the text: In a subset of trabeculae, we replaced the endogenous myosin regulatory light chain (RLC) with a recombinant cardiac RLC crosslinked to a bifunctional sulforhodamine (BSR) along its E-helix (BSR-cRLC-E)[39],[40]. This allowed us to determine the orientation of the RLC-region of myosin in demembranated trabeculae using polarized fluorescence (Fig. 4b; Supplementary Table 2). […] In contrast, F10 increased <P2> for the E-helix probe, under both relaxing and activating conditions, and abolished the orientation change in the myosin heads associated with Ca^2+-activation of the myofilaments. […] As a step towards elucidating the molecular mechanism behind F10’s stabilizing effect on the myosin head OFF conformation, we measured the affinity of isolated bovine β-cardiac myosin S1 in the presence of various nucleotides and F10 for the myosin S2 tail domain using Microscale Thermophoresis (Fig. S4).
BSR-cRLCs were exchanged into demembranated trabeculae by extraction in CDTA-rigor solution (composition in mmol L^−1: 5 CDTA, 50 KCl, 40 Tris-HCl pH 8.4, 0.1% (v/v) Triton X-100) for 30 min followed by reconstitution with 40 μmol L^−1 BSR-cRLC in relaxing solution (composition in mmol L^−1: 25 Imidazole, 15 Na2Creatine phosphate (Na2CrP), 78.4 KPropionate (KPr), 5.65 Na2ATP, 6.8 MgCl2, 10 K2EGTA, 1 DTT, pH 7.1) for 1 h, replacing ~50% of the endogenous cRLC[40],[64].
Composition of experimental solutions and activation protocols were identical to those described previously for fluorescence polarization experiments. Fluorescence emission from BSR-cRLCs in trabeculae were collected by a 0.25 N.A. objective using an excitation light beam in line with the emission path. […] The fluorescence emission was separated into parallel and perpendicular components by polarizing beam splitters, and its intensity measured by two photomultipliers, allowing determination of the order parameter <P2> that describes the dipole orientations in the trabeculae. […]

Chain of bovine β-cardiac myosin S1 / myosin S2 tail domain (Q9BE39 85-778 limits assumed): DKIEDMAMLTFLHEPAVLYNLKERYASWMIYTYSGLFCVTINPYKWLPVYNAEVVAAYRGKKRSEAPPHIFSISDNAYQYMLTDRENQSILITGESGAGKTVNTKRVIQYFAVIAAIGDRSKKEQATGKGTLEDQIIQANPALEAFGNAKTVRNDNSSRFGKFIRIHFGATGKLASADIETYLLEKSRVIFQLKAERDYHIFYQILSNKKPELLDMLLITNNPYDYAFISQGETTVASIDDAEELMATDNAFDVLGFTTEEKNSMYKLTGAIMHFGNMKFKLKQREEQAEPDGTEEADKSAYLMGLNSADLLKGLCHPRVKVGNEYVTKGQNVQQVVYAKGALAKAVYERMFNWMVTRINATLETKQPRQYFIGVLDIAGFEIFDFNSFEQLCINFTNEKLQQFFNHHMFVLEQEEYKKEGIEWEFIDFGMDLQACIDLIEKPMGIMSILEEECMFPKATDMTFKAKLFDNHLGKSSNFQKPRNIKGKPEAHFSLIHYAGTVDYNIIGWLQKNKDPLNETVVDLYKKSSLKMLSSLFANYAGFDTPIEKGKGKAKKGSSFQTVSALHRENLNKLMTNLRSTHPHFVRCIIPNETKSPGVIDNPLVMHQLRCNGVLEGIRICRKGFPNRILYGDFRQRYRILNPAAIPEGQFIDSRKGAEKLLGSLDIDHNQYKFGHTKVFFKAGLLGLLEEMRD
Chain of bovine β-cardiac myosin S1 / myosin S2 tail domain (P85100 whole entry partner, the tested form may be a part): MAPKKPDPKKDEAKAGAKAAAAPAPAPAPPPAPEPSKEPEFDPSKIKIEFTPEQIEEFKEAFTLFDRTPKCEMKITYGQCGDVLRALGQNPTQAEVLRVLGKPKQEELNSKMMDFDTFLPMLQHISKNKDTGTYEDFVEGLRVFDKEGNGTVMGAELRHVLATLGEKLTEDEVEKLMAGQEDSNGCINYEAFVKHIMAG

## CCc1cc2c(=O)n(NC(=S)NC(C)C)cnc2s1 [F10]
[1]; 1 mmol L-1 ADP.AlF4, S2D 0.0488
  Normalized MST binding S1-S2: 0.03566
[1]; 1 mmol L-1 ADP.AlF4, S2D 0.0977
  Normalized MST binding S1-S2: 0.0163
[1]; 1 mmol L-1 ADP.AlF4, S2D 0.3906
  Normalized MST binding S1-S2: 0.009201
[1]; 1 mmol L-1 ADP.AlF4, S2D 0.7813
  Normalized MST binding S1-S2: 0.03149
[1]; 1 mmol L-1 ADP.AlF4, S2D 1.5625
  Normalized MST binding S1-S2: 0.0885
[1]; 1 mmol L-1 ADP.AlF4, S2D 3.125
  Normalized MST binding S1-S2: 0.1616
[1]; 1 mmol L-1 ADP.AlF4, S2D 6.25
  Normalized MST binding S1-S2: 0.3206
[1]; 1 mmol L-1 ADP.AlF4, S2D 12.5
  Normalized MST binding S1-S2: 0.4612
[1]; 1 mmol L-1 ADP.AlF4, S2D 25
  Normalized MST binding S1-S2: 0.6248
[1]; 1 mmol L-1 ADP.AlF4, S2D 50
  Normalized MST binding S1-S2: 0.7947
[1]; 1 mmol L-1 ADP.AlF4, S2D 100
  Normalized MST binding S1-S2: 0.8606
[1]; 1 mmol L-1 ADP, S2D 0.0488
  Normalized MST binding S1-S2: 0.01363
[1]; 1 mmol L-1 ADP, S2D 0.0977
  Normalized MST binding S1-S2: 0.01186
[1]; 1 mmol L-1 ADP, S2D 0.1953
  Normalized MST binding S1-S2: 0.01368
[1]; 1 mmol L-1 ADP, S2D 0.3906
  Normalized MST binding S1-S2: 0.0116
[1]; 1 mmol L-1 ADP, S2D 0.7813
  Normalized MST binding S1-S2: 0.04036
[1]; 1 mmol L-1 ADP, S2D 1.5625
  Normalized MST binding S1-S2: 0.07905
[1]; 1 mmol L-1 ADP, S2D 3.125
  Normalized MST binding S1-S2: 0.1319
[1]; 1 mmol L-1 ADP, S2D 6.25
  Normalized MST binding S1-S2: 0.2708
[1]; 1 mmol L-1 ADP, S2D 12.5
  Normalized MST binding S1-S2: 0.4119
[1]; 1 mmol L-1 ADP, S2D 25
  Normalized MST binding S1-S2: 0.5835
[1]; 1 mmol L-1 ADP, S2D 50
  Normalized MST binding S1-S2: 0.7506
[1]; 1 mmol L-1 ADP, S2D 100
  Normalized MST binding S1-S2: 0.8408
[1]; 1 mmol L-1 ATP, S2D 0.0488
  Normalized MST binding S1-S2: 0.07487
[1]; 1 mmol L-1 ATP, S2D 0.0977
  Normalized MST binding S1-S2: 0.0005344
[1]; 1 mmol L-1 ATP, S2D 0.1953
  Normalized MST binding S1-S2: -0.01266
[1]; 1 mmol L-1 ATP, S2D 0.3906
  Normalized MST binding S1-S2: 0.02682
[1]; 1 mmol L-1 ATP, S2D 0.7813
  Normalized MST binding S1-S2: 0.008303
[1]; 1 mmol L-1 ATP, S2D 1.5625
  Normalized MST binding S1-S2: 0.06777
[1]; 1 mmol L-1 ATP, S2D 3.125
  Normalized MST binding S1-S2: 0.1347
[1]; 1 mmol L-1 ATP, S2D 6.25
  Normalized MST binding S1-S2: 0.2613
[1]; 1 mmol L-1 ATP, S2D 12.5
  Normalized MST binding S1-S2: 0.4278
[1]; 1 mmol L-1 ATP, S2D 25
  Normalized MST binding S1-S2: 0.5839
[1]; 1 mmol L-1 ATP, S2D 50
  Normalized MST binding S1-S2: 0.7582
[1]; 1 mmol L-1 ATP, S2D 100
  Normalized MST binding S1-S2: 0.8343
[2]
  biological activity in primary screen: without, however, any biological activity
Cyclic GMP-AMP synthase
  biological activity in primary screen: without, however, any biological activity
[3]; 20 μmol L^−1 F10
  decrease in ATPase activity of soleus myofibrils: about 10%
[3]; Soleus (slow), 20 μmol L^-1 F10
  Myofibrilar ATPase [%], change vs control: -10%
[3]; Soleus, 20 μmol L^-1 F10
  Myofibrilar ATPase, individual experiments: 91.7277% and 110.835% and 94.2329% and 93.0845% and 93.8276% and 88.6937% and 89.9096% and 92.8819% and 84.7083% and 101.326% and 81.2354% and 85.1848% and 83.8911% and 92.3346% and 84.6401% and 69.9319% and 80.963% and 77.0136% and 90.9224% and 106.296% and 102.343% and 99.9268% and 89.6779% and 109.737%
[4]
  biological activity in primary screen: without, however, any biological activity
Cardiac myofibrils; 20 μmol L^−1 F10
  reduction of ATPase activity of fully Ca^2+-activated cardiac myofibrils: about 25%
Cardiac myofibrils; Cardiac, 20 μmol L^-1 F10
  Myofibrilar ATPase [%], change vs control: -25%
  Myofibrilar ATPase, individual experiments: 83.5308% and 67.1834% and 78.6678% and 70.8623% and 61.5039% and 74.009% and 72.9056% and 72.7421% and 68.3286% and 79.5291% and 87.482% and 81.308% and 87.6564% and 79.3198% and 89.7828% and 83.8896% and 74.0503% and 38.3012% and 88.0917% and 60.4189%
[5]; full Ca^2+ activation pCa 4.5, 20 μmol L^−1 F10, control 0.078 ± 0.008
  order parameter <P2>max: 0.160 and 0.235 and 0.225
[5]; individual replicates
  <P2>max: 0.160 and 0.235 and 0.225
  <P2>min: 0.178 and 0.208 and 0.194
